Test results reported in patent US20220218679A1, “NOVEL COMPOUNDS AND PHARMACEUTICAL COMPOSITIONS THEREOF FOR THE TREATMENT OF INFLAMMATORY DISORDERS” (Galapagos NV, priority 2019, published 2022).

Experiments:
human IRAK-4 = molecular target: T1, human IRAK-4 (Homo sapiens, UniProt Q9NWZ3); assay: Phosphorylation IC50 determination for human IRAK-4 (ADP-Glo kinase assay); type: biochemical; conditions: RIP140 substrate, Km ATP, read-out: IRAK4 IC50
T1 construct: purchased Carna Biosciences 09 145
T1 sequence (Q9NWZ3 1-460): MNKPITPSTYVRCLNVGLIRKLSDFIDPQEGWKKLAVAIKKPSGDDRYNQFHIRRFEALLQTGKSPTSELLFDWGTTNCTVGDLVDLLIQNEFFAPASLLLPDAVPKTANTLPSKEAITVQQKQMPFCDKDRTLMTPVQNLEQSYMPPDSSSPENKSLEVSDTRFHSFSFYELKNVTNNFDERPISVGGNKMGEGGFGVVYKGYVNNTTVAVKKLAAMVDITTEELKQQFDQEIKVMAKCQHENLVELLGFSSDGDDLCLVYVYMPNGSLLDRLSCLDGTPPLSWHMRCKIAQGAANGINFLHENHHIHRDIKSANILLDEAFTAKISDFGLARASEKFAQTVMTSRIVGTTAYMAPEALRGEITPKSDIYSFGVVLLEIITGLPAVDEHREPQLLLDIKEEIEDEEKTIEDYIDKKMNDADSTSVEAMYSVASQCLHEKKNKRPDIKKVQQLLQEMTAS
Method: 3.1. Phosphorylation IC50 Determination for Human IRAK-4
The phosphorylation of the substrate RIP140 (SEQ IDi1) by IRAK4 at Km ATP was detected with the ADP-Glo Kinase Assay (Promega, Cat #V9103), a luminescent kinase assay which measures the ADP formed from a kinase reaction. (Zegzouti et al., 2009) In a second step the kinase reaction is terminated and all the remaining ATP was depleted. In a final step the ADP was converted into ATP and this newly synthesized ATP was measured by using a luciferase/luciferin reaction with a luminescent reader. The luminescent signal positively correlated with kinase activity, in particular kinase inhibition giving a decrease of the luminescent signal.
For the semi-automated assay, the positive control (100% inhibition) was prepared by diluting 10 mM staurosporine stock mixture (20 μL) in water (3.8 mL) and DMSO (180 μL), thus resulting in a […] staurosporine solution at 1% DMSO (final concentration after further dilution in the kinase reaction).
For the automated assay, no pre-dilution of the 10 mM staurosporine stock was made. 10 mM staurosporine was spotted directly in the assay plate using acoustic dispensing and complemented with DMSO to result in a similar final concentration as mentioned above.
For the semi-automated assay, the negative control (0% inhibition) was prepared by mixing water (3.8 mL) and DMSO (200 μL) resulting in a final concentration of 1% DMSO after further dilution in the kinase reaction. For the automated assay no pre-dilution of DMSO was done. 100% DMSO was spotted directly on the assay plate.
The assay buffer solution was prepared at a concentration corresponding to 5 fold the final (most diluted) assay concentration by mixing a solution of 125 mM TRIS pH 7.5+0.05% Triton X-100+2.5 mM EGTA (5.27 mL) with 1M MgCl2 (72 μL), 1M DTT (57.6 μL), and 200 mM MnCl2 (360 μL).
For example, for the semi-automated method, the enzyme-substrate mixture was prepared by mixing water (3999 μL), assay buffer solution (1380 μL), 1 mM RIP140 (138 μL—SEQ ID1), and 200 ng/mL IRAK 4 (3.45 μL Carna Biosciences, 09 145).
For semi-automated method, the ATP mixture was prepared at a concentration corresponding to 2.5 fold the final (most diluted) assay concentration of the semi-automated method and 1.5 fold the final (most diluted) assay concentration of the automated method. For example, for the semi-automated method, the ATP mixture was prepared by mixing water (4126 μL), assay buffer solution (1380 μL), and 10 mM ATP (13.80 μL).
The assay was performed either in a semi-automated or fully automated manner. The assay volume and the incubation time of the ADP detection were different accordingly the method used.
3.1.3.1. Semi-Automated Assay
The compounds were prepared as a serial dilution of 10 point dose responses with 1/5 dilution steps in 100% DMSO starting from 2 mM highest concentration, diluted 1/20 in water. 1 μL was transferred dry to the assay plates.
On each assay plate 32 wells of each control (positive & negative) were added, followed by 2 μL enzyme-substrate mixture.
The reaction was started by adding 2 μL diluted ATP (final concentration Km ATP) on the assay plates. Plates were centrifuged for a few seconds at 1000 rpm followed by an incubation at r.t. for 120 min.
The reactions were stopped and the unconsumed ATP was depleted by adding 5 μL ADP-glo Reagent (Promega, Cat #V9103) to the reaction. The plates were quickly centrifuged at 1000 rpm and incubated at r.t. for 40 min corresponding to full ATP depletion.
The ADP was converted back to ATP and luciferase and luciferin were introduced to detect ATP by adding 10 μL kinase detection reagent (Promega, Cat #V9103) to the reaction. The plates were centrifuged for a few seconds at 1000 rpm and incubated at r.t. for a further 30 min.
Luminescent read out was performed on an Envision luminescent reader (Perkin Elmer). […]

Human Hepatocyte = assay: Metabolic stability in hepatocytes (human); type: in vitro ADME; conditions: 1 μM test compound, cryopreserved human hepatocytes
Method: 4.6. Metabolic Stability in Hepatocytes
The aim of this assay is to determine the metabolic stability of the compound in hepatocytes (cryopreserved) of different species. Low hepatocyte stability may result in the formation of unwanted metabolites, high clearance, and therefore is not desirable.
The decrease in parent was assessed by measuring the percentage remaining by LC-MS/MS analysis.
A 10 mM stock solution of test compound in DMSO was first diluted in DMSO to 3 mM, and then in modified Krebs-Henseleit buffer (Sigma, K3753) to 5 μM. This compound dilution was added to a suspension of pooled cryopreserved hepatocytes (BioreclamationIVT) at 37° C. under gentle shaking.
Final reaction conditions were: 1 μM of test compound, 0.03% DMSO, 0.5 million viable hepatocytes/mL, and 75 μL incubation volume.
Testosterone (1 μM) and 7-hydroxycoumarin (1 μM) were used, respectively as phase I and phase II metabolic reaction controls.
After 0, 10, 20, 45, 90, 120 and 180 min of incubation, the reaction was terminated with 225 μL of MeCN:MeOH (2:1) containing 100 ng/mL of diclofenac as analytical internal standard. Samples were mixed, centrifuged and the supernatant analyzed by LC-MS/MS.
The instrument responses (ratios of test compound and internal standard peak areas) were referenced to the zero time point samples (considered as 100%) in order to determine the percentage of compound remaining.
Plots of percentage compound remaining were used to determine the intrinsic clearance in the hepatocyte incubations using the following equations:
Scaled Clint [L/h/kg]=Clint[μL/min/10^6 cells]*#(10^6) cells/g liver*60*( 1/10^6) Scaled Clint unbound [L/h/kg]=Clint [L/h/kg]/Fu,inc where: fu,inc equals hepatocyte binding, derived from microsomal binding (fu,mic) by following equation: […]

SMILES	IC50 (human IRAK-4) [nM]	Human Hepatocyte stability (Perc. remaining at 90 min) (Human Hepatocyte) [Perc.]
NC(=O)c1cn2nc(C3CCOCC3)cc2cc1NC(=O)c1cccc(C(F)F)n1 [Compound 16, 5-[[6-(difluoromethyl)pyridine-2-carbonyl]amino]-2-tetrahydropyran-4-yl-pyrazolo[1,5-a]pyridine-6-carboxamide]	0.1 to 5	75.95
COc1cn2nc(CCC(C)(C)O)cc2cc1NC(=O)c1cccc(C(F)(F)F)n1 [Compound 3, N-[2-(3-hydroxy-3-methylbutyl)-6-methoxypyrazolo[1,5-a]pyridin-5-yl]-6-(trifluoromethyl)pyridine-2-carboxamide]	0.1 to 5	22.8
CNC(=O)c1cn2nc(C3CCOCC3)cc2cc1NC(=O)c1cccc(C(F)F)n1 [Compound 15, 5-[[6-(difluoromethyl)pyridine-2-carbonyl]amino]-N-methyl-2-tetrahydropyran-4-yl-pyrazolo[1,5-a]pyridine-6-carboxamide]	0.1 to 5	–
CNC(=O)c1cn2nc(CCC(C)(C)O)cc2cc1NC(=O)c1cccc(C(F)F)n1 [Compound 19, 5-[[6-(difluoromethyl)pyridine-2-carbonyl]amino]-2-(3-hydroxy-3-methyl-butyl)-N-methyl-pyrazolo[1,5-a]pyridine-6-carboxamide]	0.1 to 5	–
CCOc1cn2nc(CCC(C)(C)O)cc2cc1NC(=O)c1cccn(C2CC2)c1=O [Compound 17, 1-cyclopropyl-N-[6-ethoxy-2-(3-hydroxy-3-methyl-butyl)pyrazolo[1,5-a]pyridin-5-yl]-2-oxo-pyridine-3-carboxamide]	0.1 to 5	87.25
CC(C)(O)CCc1cc2cc(NC(=O)c3cccc(C(F)(F)F)n3)c(C(N)=O)cn2n1 [Compound 4, 2-(3-hydroxy-3-methylbutyl)-5-[[6-(trifluoromethyl)pyridine-2-carbonyl]amino]pyrazolo[1,5-a]pyridine-6-carboxamide]	0.1 to 5	–
CNC(=O)c1cn2nc(C3CCN(C)CC3)cc2cc1NC(=O)c1cccc(C(F)(F)F)n1 [Compound 12, N-methyl-2-(1-methyl-4-piperidyl)-5-[[6-(trifluoromethyl)pyridine-2-carbonyl]amino]pyrazolo[1,5-a]pyridine-6-carboxamide]	0.1 to 5	–
COc1cn2nc(CCC(C)(C)O)cc2cc1NC(=O)c1cccn(C(F)F)c1=O [Compound 7, 1-(difluoromethyl)-N-[2-(3-hydroxy-3-methyl-butyl)-6-methoxy-pyrazolo[1,5-a]pyridin-5-yl]-2-oxo-pyridine-3-carboxamide]	5 to 10	–

Other lines, results leading:

IC50 (human IRAK-4) [nM]	Human Hepatocyte stability (Perc. remaining at 90 min) (Human Hepatocyte) [Perc.]	SMILES
0.1 to 5	105	[2H]C([2H])([2H])Oc1cn2nc(CCC(C)(C)O)cc2cc1NC(=O)c1cccn(C2CC2)c1=O [Compound 24, 1-cyclopropyl-N-[2-(3-hydroxy-3-methylbutyl)-6-(trideuteriomethoxy)pyrazolo[1,5-a]pyridin-5-yl]-2-oxopyridine-3-carboxamide]
0.1 to 5	94.5	CNC(=O)c1cn2nc(CCC(C)(C)O)cc2cc1NC(=O)c1cccc(C(F)(F)F)n1 [Compound 5, 2-(3-hydroxy-3-methylbutyl)-N-methyl-5-[[6-(trifluoromethyl)pyridine-2-carbonyl]amino]pyrazolo[1,5-a]pyridine-6-carboxamide]
10 to 50	98.45	COc1c(NC(=O)c2cccn(C3CC3)c2=O)cc2cc(CCC(C)(C)O)nn2c1C [Compound 13, 1-cyclopropyl-N-[2-(3-hydroxy-3-methyl-butyl)-6-methoxy-7-methyl-pyrazolo[1,5-a]pyridin-5-yl]-2-oxo-pyridine-3-carboxamide]
0.1 to 5	81.65	CC(C)(O)CCc1cc2cc(NC(=O)c3cccc(C(F)F)n3)c(C(N)=O)cn2n1 [Compound 20, 5-[[6-(difluoromethyl)pyridine-2-carbonyl]amino]-2-(3-hydroxy-3-methyl-butyl)pyrazolo[1,5-a]pyridine-6-carboxamide]
0.1 to 5	100.05	COc1cn2nc(CC(F)C(C)(C)O)cc2cc1NC(=O)c1cccn(C2CC2)c1=O (stereo not drawn) [Compound 22, 1-cyclopropyl-N-[2-(2-fluoro-3-hydroxy-3-methyl-butyl)-6-methoxy-pyrazolo[1,5-a]pyridin-5-yl]-2-oxo-pyridine-3-carboxamide]
0.1 to 5	100.45	COc1cn2nc(CCC(C)(C)O)cc2cc1NC(=O)c1cccn(C)c1=O [Compound 2, N-[2-(3-hydroxy-3-methylbutyl)-6-methoxypyrazolo[1,5-a]pyridin-5-yl]-1-methyl-2-oxopyridine-3-carboxamide]
0.1 to 5	97.2	COc1cn2nc(CC(F)C(C)(C)O)cc2cc1NC(=O)c1cccn(C2CC2)c1=O (single isomer, unassigned; enantiomer a) [Compound 25, 1-cyclopropyl-N-[2-(2-fluoro-3-hydroxy-3-methyl-butyl)-6-methoxy-pyrazolo[1,5-a]pyridin-5-yl]-2-oxo-pyridine-3-carboxamide Enantiomer A]
0.1 to 5	101.45	[2H]C([2H])([2H])C(O)(CCc1cc2cc(NC(=O)c3cccn(C4CC4)c3=O)c(OC)cn2n1)C([2H])([2H])[2H] [Compound 23, 1-cyclopropyl-N-[6-methoxy-2-[4,4,4-trideuterio-3-hydroxy-3-(trideuteriomethyl)butyl]pyrazolo[1,5-a]pyridin-5-yl]-2-oxo-pyridine-3-carboxamide]
